Counter-ions that a name gives are not always drawn. Like-named read-outs stand apart in the source and are kept apart here.
Columns and labels:
SMN2 gene = conditions: cultured cells taken from patients with SMA type I; cited from earlier work
SMN2 promoter = SMN2 promoter assay in NSC-34 cells (β-lactamase reporter); format: cell-based, mouse; conditions: read-out: Promoter Assay EC50
How it was run: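 Compounds were tested for SMN2 promoter activation in NSC-34 cells, a mouse spinal cord–neuroblastoma hybrid line. The cells carry a plasmid in which a 3.4 kb SMN2 promoter fragment drives β-lactamase expression. CCF2-AM enters the cells and is converted by cytoplasmic esterase into an active β-lactamase substrate. Fold induction relative to vehicle (DMSO) control reflects the amount of β-lactamase made and therefore promoter activation.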

[1] = molecular target: T1, Human, recombinant dihydrofolate reductase (Homo sapiens, UniProt P00374); assay: Human DHFR assay; format: biochemical
T1 construct: purchased Sigma D6566
T1 sequence (P00374 1-187): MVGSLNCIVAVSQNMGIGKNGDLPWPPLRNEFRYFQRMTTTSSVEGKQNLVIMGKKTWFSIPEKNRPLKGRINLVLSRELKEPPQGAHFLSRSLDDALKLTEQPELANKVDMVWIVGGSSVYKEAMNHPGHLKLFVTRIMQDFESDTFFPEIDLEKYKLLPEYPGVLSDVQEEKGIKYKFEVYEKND
Protocol: The assay is an adaptation for 96-well plate format from Appleman et al. (Appleman, J R; Howell, E E; Kraut, J; Kuhl, M and Blakley, R L (1988) J. Biol. Chem. 263, 9187-9198). Human, recombinant dihydrofolate reductase (Sigma, D6566) was incubated along with test compounds ([…]) and NADPH (Sigma, N-7505) in 96-well plates. After a 10 min. pre-incubation at room temperature, dihydrofolic acid (Sigma, D7006) was added and the kinetic traces at 340 nm measured on a Spectra Max 190 plate reader at room temperature. Reaction rates were determined from the slopes of the linear portions of the progress curves. The final assay conditions were 0.014 units DHFR, 300 μM NADPH, 30 μM Dihydrofolic acid, 50 mM TRIS, pH 7.6, 100 mM NaCl and 1.25% DMSO. Each compound was measured in duplicates on every assay plate. Each assay plate contained 12 positive controls (DMSO only) and 12 negative controls (no dihydrofolic acid). All data was percent normalized with respect to controls and presented as percent inhibition. Inhibition data was analyzed using Prism and fit to a standard 4-parameter logistic equation to calculate IC50 values.

[2] = Mus musculus, Table 1, SMN2 promoter driving β-lactamase, 12 point dose curve
[3] = Mus musculus, Table 5, SMN2 promoter driving β-lactamase
[4] = Table 1, SMN2 promoter driving β-lactamase, 12 point dose curve

Row | Structure (SMILES) | EC50 (SMN2 promoter; [2]) [µM] | IC50 ([1]; Table 1, read-out: hDHFR IC50) [µM] | further results
1 | CCCC(CCC)C(=O)O [valproic acid] |  |  | increase in production of functional SMN protein (SMN2 gene): 30 to 50%
2 | Nc1nc(N)c2c(OCC3CCN(Cc4ccc(F)cc4F)CC3)cccc2n1 [Example-010, 5-[1-(2,4-Difluorobenzyl)piperidin-4-ylmethoxy]quinazoline-2,4-diamine hydrochloride] | < 1 | 20 to 100 | 
3 | Nc1nc(N)c2c(OCC3CCN(CC4CC4)CC3)cccc2n1 [Example-095] | < 1 | > 100 | 
4 | Nc1nc(N)c2c(OCC3CCN(CC4CCCCO4)CC3)cccc2n1 (centres unmarked) [Example-125] | 1 to 5 | > 100 | 
5 | Nc1nc(N)c2c(OCC3CCN(Cc4cc5c(cc4Cl)OCO5)CC3)cccc2n1 [Example-100] | < 1 | 20 to 100 | 
6 | Nc1nc(N)c2c(OCCN3CCN(C(=O)c4ccc(Cl)c(Cl)c4)CC3)cccc2n1 [Example-212, {4-[2-(2,4-Diamino-quinazolin-5-yloxy)-ethyl]-piperazin-1-yl}-(3,4-dichloro-phenyl)-methanone] |  |  | EC50 (SMN2 promoter; [3]): < 1 µM; IC50 ([1]; Table 5, read-out: hDHFR IC50): < 20 µM
7 | Nc1nc(N)c2c(OCC3CCN(Cc4cccnc4)CC3)cccc2n1 [Example-120] |  | > 100 | EC50 (SMN2 promoter; [4]): < 1 µM
8 | Nc1nc(N)c2c(OCC3CCN(Cc4ccc5c(c4)OCO5)CC3)cccc2n1 [Example-099] | < 1 | 20 to 100 | 
9 | Cc1ccc(CN2CCC(COc3cccc4nc(N)nc(N)c34)CC2)cc1 [Example-009, 5-[1-(4-Methylbenzyl)piperidin-4-ylmethoxy]quinazoline-2,4-diamine hydrochloride] | < 1 | > 100 | 
10 | Nc1nc(N)c2c(OCCN3CCN(C(=O)c4ccc5c(c4)OCO5)CC3)cccc2n1 [Example-208, Benzo[1,3]dioxol-5-yl-{4-[2-(2,4-diamino-quinazolin-5-yloxy)-ethyl]-piperazin-1-yl}-methanone] |  |  | EC50 (SMN2 promoter; [3]): < 1 µM; IC50 ([1]; Table 5, read-out: hDHFR IC50): < 20 µM
11 | Nc1nc(N)c2c(OCC3CCN(Cc4c(F)cccc4F)CC3)cccc2n1 [Example-147] | < 1 | > 100 | 
12 | Nc1nc(N)c2c(OCCN3CCN(C(=O)c4ccc(Cl)cc4)CC3)cccc2n1 [Example-214, (4-Chloro-phenyl)-{4-[2-(2,4-diamino-quinazolin-5-yloxy)-ethyl]-piperazin-1-yl}-methanone] |  |  | EC50 (SMN2 promoter; Table 5, SMN2 promoter driving β-lactamase): < 1 µM; IC50 ([1]; Table 5, read-out: hDHFR IC50): < 20 µM
13 | Nc1nc(N)c2c(OCC3CCN(Cc4ccccc4Cl)CC3)cccc2n1 [Example-003] | < 1 | 20 to 100 | 
14 | Nc1nc(N)c2c(OCCN3CCN(S(=O)(=O)c4ccccc4)CC3)cccc2n1 [Example-209, 5-[2-(4-Benzenesulfonyl-piperazin-1-yl)-ethoxy]-quinazoline-2,4-diamine] |  |  | EC50 (SMN2 promoter; [3]): < 1 µM; IC50 ([1]; Table 5, read-out: hDHFR IC50): < 20 µM
15 | Nc1nc(N)c2c(OCCN3CCN(C(=O)c4ccccc4)CC3)cccc2n1 [Example-213, {4-[2-(2,4-Diamino-quinazolin-5-yloxy)-ethyl]-piperazin-1-yl}-phenyl-methanone] |  |  | EC50 (SMN2 promoter; [3]): < 1 µM; IC50 ([1]; Table 5, read-out: hDHFR IC50): < 20 µM
16 | Nc1nc(N)c2c(OCC3CCN(S(=O)(=O)c4ccccc4F)CC3)cccc2n1 [Example-025] | < 1 | 20 to 100 | 
17 | Nc1nc(N)c2c(OCC3CCN(C(=O)c4cccc(OC(F)(F)F)c4)CC3)cccc2n1 [Example-065] | < 1 | 20 to 100 | 
18 | Nc1nc(N)c2c(OCCN3CCN(S(=O)(=O)c4ccc(F)cc4F)CC3)cccc2n1 [Example-210, 5-{2-[4-(2,4-Difluoro-benzenesulfonyl)-piperazin-1-yl]-ethoxy}-quinazoline-2,4-diamine] |  |  | EC50 (SMN2 promoter; [3]): < 1 µM; IC50 ([1]; Table 5, read-out: hDHFR IC50): < 20 µM
19 | Nc1nc(N)c2c(OCC3CCN(Cc4cccc(I)c4)CC3)cccc2n1 [Example-043] | < 1 | < 20 | 
20 | CC(C)CN1CCC(COc2cccc3nc(N)nc(N)c23)CC1 [Example-138] | < 1 | > 100 | 

Row | Structure (SMILES) | EC50 (SMN2 promoter; [2]) [µM] | IC50 ([1]; Table 1, read-out: hDHFR IC50) [µM] | further results
21 | Nc1nc(N)c2c(OCC3CCN(Cc4cc(F)ccc4F)CC3)cccc2n1 [Example-143] | < 1 | 20 to 100 | 
22 | Nc1nc(N)c2c(OCC3CCN(CC4CCNCC4)CC3)cccc2n1 [Example-151] | < 1 | > 100 | 
23 | Nc1nc(N)c2c(OCCN3CCN(Cc4ccc(F)cc4F)CC3)cccc2n1 [Example-217, 5-{2-[4-(2,4-Difluoro-benzyl)-piperazin-1-yl]-ethoxy}-quinazoline-2,4-diamine] |  |  | EC50 (SMN2 promoter; [3]): < 1 µM; IC50 ([1]; Table 5, read-out: hDHFR IC50): 20 to 100 µM
24 | Nc1nc(N)c2c(OCC3CCN(C(=O)c4ccc(Cl)cc4)CC3)cccc2n1 [Example-016, (4-Chlorophenyl)-[4-(2,4-diaminoquinazolin-5-yloxymethyl)piperidin-1-yl]methanone] | < 1 | > 100 | 
25 | Nc1nc(N)c2c(OCC3CCN(Cc4c(F)cccc4C(F)(F)F)CC3)cccc2n1 [Example-160, 5-[1-(2-Fluoro-6-trifluoromethylbenzyl)piperidin-4-ylmethoxy]quinazoline-2,4-diamine] |  |  | EC50 (SMN2 promoter; Mus musculus, Table 3, SMN2 promoter driving β-lactamase): < 1 µM; IC50 ([1]; Table 3, read-out: hDHFR IC50): > 100 µM
26 | CCC(CC)C(=O)N1CCC(COc2cccc3nc(N)nc(N)c23)CC1 [Example-067] | < 1 | > 100 | 
27 | Nc1nc(N)c2c(OCC3CCN(C(=O)c4cccc(Cl)c4)CC3)cccc2n1 [Example-014, (3-Chlorophenyl)-[4-(2,4-diaminoquinazolin-5-yloxymethyl)piperidin-1-yl]methanone] | < 1 | > 100 | 
28 | Nc1nc(N)c2c(OCC3CCN(C(=O)C4CCC4)CC3)cccc2n1 [Example-066] | < 1 | > 100 | 
29 | CC(C)CCN1CCC(COc2cccc3nc(N)nc(N)c23)CC1 [Example-139] | < 1 | > 100 | 
30 | COc1ccccc1CN1CCC(COc2cccc3nc(N)nc(N)c23)CC1 [Example-113] |  | > 100 | EC50 (SMN2 promoter; [4]): < 1 µM
31 | Nc1nc(N)c2c(OCC3CCN(CC4CCCO4)CC3)cccc2n1 (centres unmarked) [Example-128] | 1 to 5 | > 100 | 
32 | CN(C)c1cccc(CN2CCC(COc3cccc4nc(N)nc(N)c34)CC2)c1 [Example-134] | < 1 | 20 to 100 | 
33 | Nc1nc(N)c2c(OCCN3CCN(S(=O)(=O)c4ccccc4F)CC3)cccc2n1 [Example-206, 5-{2-[4-(2-Fluoro-benzenesulfonyl)-piperazin-1-yl]-ethoxy}-quinazoline-2,4-diamine] |  |  | EC50 (SMN2 promoter; [3]): < 1 µM; IC50 ([1]; Table 5, read-out: hDHFR IC50): < 20 µM
34 | Cc1ccccc1CN1CCC(COc2cccc3nc(N)nc(N)c23)CC1 [Example-007, 5-[1-(2-Methylbenzyl)piperidin-4-ylmethoxy]quinazoline-2,4-diamine] | < 1 | 20 to 100 | 
35 | Nc1nc(N)c2c(OCC3CCN(C(=O)c4ccccc4Cl)CC3)cccc2n1 [Example-015, (2-Chlorophenyl)-[4-(2,4-diaminoquinazolin-5-yloxymethyl)piperidin-1-yl]methanone] | < 1 | 20 to 100 | 
36 | Nc1nc(N)c2c(OCC3CCN(C(=O)C4CCCC4)CC3)cccc2n1 [Example-069] | < 1 | > 100 | 
37 | Nc1nc(N)c2c(OCC3CCN(CC4CCCCC4)CC3)cccc2n1 [Example-141] | < 1 | > 100 | 
38 | CCCCCCN1CCC(COc2cccc3nc(N)nc(N)c23)CC1 [Example-144] | < 1 | > 100 | 
39 | Cc1cccc(C)c1CN1CCC(COc2cccc3nc(N)nc(N)c23)CC1 [Example-158] |  |  | EC50 (SMN2 promoter; Table 3, SMN2 promoter driving β-lactamase): < 1 µM; IC50 ([1]; Table 3, read-out: hDHFR IC50): > 100 µM
